Source: patent US10758534B2 (Vertex Pharmaceuticals Incorporated, priority 2014, dated 2020)

target: T1, F508del (Homo sapiens, UniProt P13569, DEL508-508); experiment: Protocol 2: FRET membrane potential optical assay (VIPR), identification of correction compounds; format: cell-based; settings: F508del CFTR modulator activity; compounds of Table 1; read-out: EC30
T1 construct: expressed in transfected cells
Procedure, shortened: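 Mouse NIH3T3 cells, stable F508del; cpd 16 hrs, 37° C., serum-free; pos ctrl 27° C. 16 hrs. Rinse in Krebs Ringers, dye load, then add 10 μM forskolin + 20 μM genistein with Cl^−-free (gluconate) medium; depolarization by FRET voltage dyes.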

T1 sequence (P13569 with tags, fused parts or gaps DEL508-508): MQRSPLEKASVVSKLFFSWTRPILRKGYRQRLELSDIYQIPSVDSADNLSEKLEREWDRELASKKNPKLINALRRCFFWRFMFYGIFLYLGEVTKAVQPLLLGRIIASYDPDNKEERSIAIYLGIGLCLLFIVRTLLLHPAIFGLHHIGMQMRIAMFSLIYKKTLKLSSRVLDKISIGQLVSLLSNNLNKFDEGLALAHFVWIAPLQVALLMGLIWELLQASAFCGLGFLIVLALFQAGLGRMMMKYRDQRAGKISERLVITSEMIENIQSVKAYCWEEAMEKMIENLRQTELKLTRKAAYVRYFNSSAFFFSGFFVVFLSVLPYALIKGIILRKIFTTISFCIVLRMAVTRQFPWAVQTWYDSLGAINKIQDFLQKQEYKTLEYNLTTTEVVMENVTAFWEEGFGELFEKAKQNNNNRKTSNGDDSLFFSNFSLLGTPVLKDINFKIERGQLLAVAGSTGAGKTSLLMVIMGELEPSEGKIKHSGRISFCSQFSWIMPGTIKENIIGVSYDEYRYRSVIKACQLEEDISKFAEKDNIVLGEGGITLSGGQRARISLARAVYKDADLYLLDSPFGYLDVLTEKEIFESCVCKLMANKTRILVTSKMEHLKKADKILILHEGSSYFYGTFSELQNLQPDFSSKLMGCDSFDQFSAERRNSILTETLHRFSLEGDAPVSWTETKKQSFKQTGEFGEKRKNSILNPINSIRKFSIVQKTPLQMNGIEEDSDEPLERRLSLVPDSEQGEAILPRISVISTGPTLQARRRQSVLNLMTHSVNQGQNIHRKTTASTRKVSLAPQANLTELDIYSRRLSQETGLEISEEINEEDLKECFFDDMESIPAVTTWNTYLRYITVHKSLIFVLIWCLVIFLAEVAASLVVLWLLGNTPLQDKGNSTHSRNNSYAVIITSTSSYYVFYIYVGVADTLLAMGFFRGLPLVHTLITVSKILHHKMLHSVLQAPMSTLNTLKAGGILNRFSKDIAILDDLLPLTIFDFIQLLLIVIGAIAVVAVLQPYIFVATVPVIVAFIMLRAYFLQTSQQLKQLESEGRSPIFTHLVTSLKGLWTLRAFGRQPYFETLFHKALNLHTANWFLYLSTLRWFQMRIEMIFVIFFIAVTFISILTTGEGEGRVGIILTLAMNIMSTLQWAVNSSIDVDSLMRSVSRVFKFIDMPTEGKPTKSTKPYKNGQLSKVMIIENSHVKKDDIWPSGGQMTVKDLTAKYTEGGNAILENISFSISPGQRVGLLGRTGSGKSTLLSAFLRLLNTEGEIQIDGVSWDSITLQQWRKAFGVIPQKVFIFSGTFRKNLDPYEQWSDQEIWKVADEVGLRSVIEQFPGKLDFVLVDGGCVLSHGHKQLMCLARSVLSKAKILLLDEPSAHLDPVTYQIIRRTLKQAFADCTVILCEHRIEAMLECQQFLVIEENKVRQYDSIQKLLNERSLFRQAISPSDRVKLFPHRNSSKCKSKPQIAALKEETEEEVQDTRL

| Structure (SMILES) | EC30 |
| --- | --- |
| Cc1ccc2cc(C(=O)NS(=O)(=O)c3cccc(N)n3)c(N3C[C@@H](C)CC3(C)C)nc2c1 [Compound 2519, N-[(6-amino-2-pyridyl)sulfonyl]-7-methyl-2-[(4S)-2,2,4-trimethylpyrrolidin-1-yl]quinoline-3-carboxamide] | < 3000 nM |
| C[C@@H]1CN(c2nc(C(C)(C)C)c(C3=CCN(C(=O)NC4CCCCC4)CC3)cc2C(=O)NS(=O)(=O)c2cccc(N)n2)C(C)(C)C1 [Compound 2520, N-[(6-amino-2-pyridyl)sulfonyl]-6-tert-butyl-5-[1-(cyclohexylcarbamoyl)-3,6-dihydro-2H-pyridin-4-yl]-2-[(4S)-2,2,4-trimethylpyrrolidin-1-yl]pyridine-3-carboxamide] | 3000 to 10000 nM |
| CCOc1ccc(-c2ccc(C(=O)NS(=O)(=O)N3CC[C@H](N)C3)c(N3C[C@@H](C)CC3(C)C)n2)cc1 [Compound 2525, N-[(3S)-3-aminopyrrolidin-1-yl]sulfonyl-6-(4-ethoxyphenyl)-2-[(4S)-2,2,4-trimethylpyrrolidin-1-yl]pyridine-3-carboxamide] | 3000 to 10000 nM |
| CCCCOCCCNc1cccc(S(=O)(=O)NC(=O)c2cccnc2N2CC(C)CC2(C)C)n1 (centres unmarked) [Compound 2529, N—[[6-(3-butoxypropylamino)-2-pyridyl]sulfonyl]-2-(2,2,4-trimethylpyrrolidin-1-yl)pyridine-3-carboxamide] | < 3000 nM |
| CC(C)COc1cc(F)cc(-c2ccc(C(=O)NS(=O)(=O)N3C[C@@H](O)[C@H](O)C3)c(N3C[C@@H](C)CC3(C)C)n2)c1 [Compound 2534, N-[(3R,4R)-3,4-dihydroxypyrrolidin-1-yl]sulfonyl-6-(3-fluoro-5-isobutoxy-phenyl)-2-[(4S)-2,2,4-trimethylpyrrolidin-1-yl]pyridine-3-carboxamide] | < 3000 nM |
| CC1CN(c2ncccc2C(=O)NS(=O)(=O)c2cccc(N3CCC[C@@H]3C(=O)OC(C)(C)C)n2)C(C)(C)C1 (stereo partly drawn) [Compound 2536, tert-butyl (2R)-1-[6-[[2-(2,2,4-trimethylpyrrolidin-1-yl)pyridine-3-carbonyl]sulfamoyl]-2-pyridyl]pyrrolidine-2-carboxylate] | < 3000 nM |
| CC1CN(c2ncccc2C(=O)NS(=O)(=O)c2cccc(N3CC[C@@H](NC(=O)OC(C)(C)C)C3)n2)C(C)(C)C1 (stereo partly drawn) [Compound 2537, tert-butyl N-[(3R)-1-[6-[[2-(2,2,4-trimethylpyrrolidin-1-yl)pyridine-3-carbonyl]sulfamoyl]-2-pyridyl]pyrrolidin-3-yl]carbamate] | 3000 to 10000 nM |
| CC(C)COc1cc(F)cc(-c2ccc(C(=O)NS(=O)(=O)c3cccc(N)n3)c(N3CC(C(C)(C)C)CC3(C)C)n2)c1 (centres unmarked) [Compound 2538, N-[(6-amino-2-pyridyl)sulfonyl]-2-(4-tert-butyl-2,2-dimethyl-pyrrolidin-1-yl)-6-(3-fluoro-5-isobutoxy-phenyl)pyridine-3-carboxamide] | < 3000 nM |
| C[C@@H]1CN(c2nc(-c3ccccc3OC(F)(F)F)ccc2C(=O)NS(=O)(=O)c2cccnc2N)C(C)(C)C1 [Compound 2539, N-[(2-amino-3-pyridyl)sulfonyl]-6-[12-(trifluoromethoxy)phenyl]-2-[(4S)-2,2,4-trimethylpyrrolidin-1-yl]pyridine-3-carboxamide] | < 3000 nM |
| Nc1cccc(S(=O)(=O)NC(=O)c2cccnc2Oc2ccccc2-c2nc3ccccc3o2)n1 [Compound 2544, N-[(6-amino-2-pyridyl)sulfonyl]-2-[2-(1,3-benzoxazol-2-yl)phenoxy]pyridine-3-carboxamide] | > 10000 nM |
| COc1cc(Cl)cc(-c2cnc(N3CC(C)CC3(C)C)c(C(=O)NS(=O)(=O)c3cccc(N)n3)c2)c1 (centres unmarked) [Compound 2545, N-[(6-amino-2-pyridyl)sulfonyl]-5-(3-chloro-5-methoxy-phenyl)-2-(2,2,4-trimethylpyrrolidin-1-yl)pyridine-3-carboxamide] | < 3000 nM |
| Cc1ccc2nc(N3C[C@@H](C)CC3(C)C)c(C(=O)NS(=O)(=O)c3cccc(N)n3)cc2c1 [Compound 2548, N-[(6-amino-2-pyridyl)sulfonyl]-6-methyl-2-[(4S)-2,2,4-trimethylpyrrolidin-1-yl]quinoline-3-carboxamide] | < 3000 nM |

Now from value to compound:

| EC30 | Structure (SMILES) |
| --- | --- |
| < 3000 nM | CC1CN(c2ncc(-c3ccc(C(C)(C)C#N)cc3)cc2C(=O)NS(=O)(=O)c2cccc(N)n2)C(C)(C)C1 (centres unmarked) [Compound 2521, N-[(6-amino-2-pyridyl)sulfonyl]-5-[4-(1-cyano-1-methyl-ethyl)phenyl]-2-(2,2,4-trimethylpyrrolidin-1-yl)pyridine-3-carboxamide] |
| < 3000 nM | C[C@@H]1CN(c2nc(-c3ccc4c(c3)OCCO4)ccc2C(=O)NS(=O)(=O)c2cccnc2N)C(C)(C)C1 [Compound 2522, N-[(2-amino-3-pyridyl)sulfonyl]-6-(2,3-dihydro-1,4-benzodioxin-6-yl)-2-[(4S)-2,2,4-trimethylpyrrolidin-1-yl]pyridine-3-carboxamide] |
| 3000 to 10000 nM | CC1CN(c2ncccc2C(=O)NS(=O)(=O)c2cccc(Oc3ccc4c(c3)CCCC4=O)n2)C(C)(C)C1 (centres unmarked) [Compound 2523, N—[[6-(1-oxotetralin-6-yl)oxy-2-pyridyl]sulfonyl]-2-(2,2,4-trimethylpyrrolidin-1-yl)pyridine-3-carboxamide] |
| < 3000 nM | CC1CN(c2ncccc2C(=O)NS(=O)(=O)c2cccc(OCc3ccc(F)cc3)n2)C(C)(C)C1 (centres unmarked) [Compound 2524, N—[[6-[(4-fluorophenyl)methoxy]-2-pyridyl]sulfonyl]-2-(2,2,4-trimethylpyrrolidin-1-yl)pyridine-3-carboxamide] |
| < 3000 nM | CCOc1cccc(Nc2cccc(S(=O)(=O)NC(=O)c3cccnc3N3CC(C)CC3(C)C)n2)c1 (centres unmarked) [Compound 2526, N—[[6-(3-ethoxyanilino)-2-pyridyl]sulfonyl]-2-(2,2,4-trimethylpyrrolidin-1-yl)pyridine-3-carboxamide] |
| < 3000 nM | COc1cc(F)cc(-c2ccc(C(=O)NS(=O)(=O)c3ccc[nH]c3=O)c(N3C[C@@H](C)CC3(C)C)n2)c1 [Compound 2527, 6-(3-fluoro-5-methoxy-phenyl)-N-[(2-oxo-1H-pyridin-3-yl)sulfonyl]-2-[(4S)-2,2,4-trimethylpyrrolidin-1-yl]pyridine-3-carboxamide] |
| < 3000 nM | CCCOc1cccc(S(=O)(=O)NC(=O)c2cccnc2N2CC(C)CC2(C)C)n1 (centres unmarked) [Compound 2528, N-[(6-propoxy-2-pyridyl)sulfonyl]-2-(2,2,4-trimethylpyrrolidin-1-yl)pyridine-3-carboxamide] |
| < 3000 nM | COc1ccc(C)cc1-c1ccc(C(=O)NS(=O)(=O)c2ccc[nH]c2=O)c(N2C[C@@H](C)CC2(C)C)n1 [Compound 2530, 6-(2-methoxy-5-methyl-phenyl)-N-[(2-oxo-1H-pyridin-3-yl)sulfonyl]-2-[(4S)-2,2,4-trimethylpyrrolidin-1-yl]pyridine-3-carboxamide] |
| < 3000 nM | CCN(CC)c1ccc(Nc2cccc(S(=O)(=O)NC(=O)c3cccnc3N3CC(C)CC3(C)C)n2)cc1 (centres unmarked) [Compound 2531, N—[[6-[4-(diethylamino)anilino]-2-pyridyl]sulfonyl]-2-(2,2,4-trimethylpyrrolidin-1-yl)pyridine-3-carboxamide] |
| < 3000 nM | CC1CN(c2ncccc2C(=O)NS(=O)(=O)c2cccc(OCc3ccc(F)c(F)c3)n2)C(C)(C)C1 (centres unmarked) [Compound 2533, N—[[6-[(3,4-difluorophenyl)methoxy]-2-pyridyl]sulfonyl]-2-(2,2,4-trimethylpyrrolidin-1-yl)pyridine-3-carboxamide] |
| 3000 to 10000 nM | CNc1cccc(S(=O)(=O)NC(=O)c2cccnc2N2CC(C)CC2(C)C)n1 (centres unmarked) [Compound 2535, N—[[6-(methylamino)-2-pyridyl]sulfonyl]-2-(2,2,4-trimethylpyrrolidin-1-yl)pyridine-3-carboxamide] |
| < 3000 nM | C#CCCC(=O)Nc1cccc(S(=O)(=O)NC(=O)c2ccc(-c3ccc(Cl)c(OCCC)c3)nc2N2[C@H](C)CC[C@@H]2C)n1 [Compound 2540, 6-(4-chloro-3-propoxy-phenyl)-2-[(2R,5S)-2,5-dimethylpyrrolidin-1-yl]-N-[[6-(pent-4-ynoylamino)-2-pyridyl]sulfonyl]pyridine-3-carboxamide] |
| < 3000 nM | CC(C)Oc1ccccc1-c1ccc(C(=O)NS(=O)(=O)c2ccc[nH]c2=O)c(N2C[C@@H](C)CC2(C)C)n1 [Compound 2541, 6-(2-isopropoxyphenyl)-N-[(2-oxo-1H-pyridin-3-yl)sulfonyl]-2-[(4S)-2,2,4-trimethylpyrrolidin-1-yl]pyridine-3-carboxamide] |
| < 3000 nM | C[C@@H]1CN(c2nc(-c3ccccc3F)ccc2C(=O)NS(=O)(=O)c2ccc[nH]c2=O)C(C)(C)C1 [Compound 2542, 6-(2-fluorophenyl)-N-[(2-oxo-1H-pyridin-3-yl)sulfonyl]-2-[(4S)-2,2,4-trimethylpyrrolidin-1-yl]pyridine-3-carboxamide] |
| < 3000 nM | Cc1cc(-c2ccc(C(=O)NS(=O)(=O)c3cccc(N)n3)c(N3C[C@@H](C)CC3(C)C)n2)ccc1OC(F)F [Compound 2543, N-[(6-amino-2-pyridyl)sulfonyl]-6-[4-(difluoromethoxy)-3-methyl-phenyl]-2-[(4S)-2,2,4-trimethylpyrrolidin-1-yl]pyridine-3-carboxamide] |
| < 3000 nM | CC1CN(c2ncccc2C(=O)NS(=O)(=O)c2cccc(Nc3ccc(-c4cnco4)cc3)n2)C(C)(C)C1 (centres unmarked) [Compound 2546, N—[[6-(4-oxazol-5-ylanilino)-2-pyridyl]sulfonyl]-2-(2,2,4-trimethylpyrrolidin-1-yl)pyridine-3-carboxamide] |
| < 3000 nM | CC1CN(c2ncc(-c3ccc(C(C)(C)O)cc3)cc2C(=O)NS(=O)(=O)c2cccc(N)n2)C(C)(C)C1 (centres unmarked) [Compound 2547, N-[(6-amino-2-pyridyl)sulfonyl]-5-[4-(1-hydroxy-1-methyl-ethyl)phenyl]-2-(2,2,4-trimethylpyrrolidin-1-yl)pyridine-3-carboxamide] |
